Common to all, as to assay type: cell-based
For one experiment, the target named is T1, human P2X7 channel (Homo sapiens, UniProt Q99572).
T1 construct: expressed in transfected cells; host or cells: HEK-293
T1 sequence (Q99572 1-595): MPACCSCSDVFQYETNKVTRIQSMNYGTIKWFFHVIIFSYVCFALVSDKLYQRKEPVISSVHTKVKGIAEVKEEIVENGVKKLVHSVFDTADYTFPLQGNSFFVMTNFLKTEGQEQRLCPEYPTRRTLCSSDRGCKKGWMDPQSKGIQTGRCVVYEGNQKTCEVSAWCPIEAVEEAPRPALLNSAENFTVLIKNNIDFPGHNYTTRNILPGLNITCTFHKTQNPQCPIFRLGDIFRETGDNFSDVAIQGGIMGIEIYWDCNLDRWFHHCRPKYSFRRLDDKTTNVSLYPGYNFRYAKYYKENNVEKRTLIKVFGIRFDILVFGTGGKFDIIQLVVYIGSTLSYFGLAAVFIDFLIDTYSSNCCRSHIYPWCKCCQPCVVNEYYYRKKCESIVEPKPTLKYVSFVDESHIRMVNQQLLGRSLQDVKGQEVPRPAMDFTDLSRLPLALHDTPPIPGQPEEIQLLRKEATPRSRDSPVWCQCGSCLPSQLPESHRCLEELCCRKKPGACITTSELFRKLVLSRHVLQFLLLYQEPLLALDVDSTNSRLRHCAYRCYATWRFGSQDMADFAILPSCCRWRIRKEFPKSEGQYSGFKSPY
Put plainly: human P2X7 channel assay by automated patch-clamp (QPatch 16X). Conditions: HEK-293 cells expressing P2X7; current evoked by 100 microM BzATP; whole-cell, held at -80 mV; read-out: human Q-Patch (activity range). Summed up: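 Whole-cell patch clamp on HEK-293 cells expressing P2X7, room temperature, held at −80 mV, CsF internal and NaCl external (pH 7.4). Currents evoked by 100 microM BzATP, four controls then with compound at 1, 10, 100 and 1000 nM; peak inward current normalized, IC50 from dose-response fit, reported as potency bins.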
On the technique in general: The patch-clamp technique gives a direct electrical read-out from membranes.

Another experiment addresses T2, humanP2X7 (Homo sapiens, UniProt Q99572).
T2 construct: expressed in transfected cells; host or cells: HEK-293
T2 sequence (Q99572 1-595): T1 sequence (Q99572 1-595)
Put plainly: P2X7 channel calcium-influx assay (Fluo-8, FLIPR TETRA), human P2X7. Conditions: HEK-293 cells stably transfected with P2X7; Bz-ATP at EC80; low divalent cation buffer; read-out: humanP2X7 (activity range). The essentials: (§1)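 HEK-293 cells stably expressing the respective species' P2X7, Fluo-8 NW loaded 1 h at RT in low divalent buffer (0.3 mM Ca2+, 0 mM Mg2+). Compound preincubated 5 min, then Bz-ATP at EC80; FLIPR calcium influx over 3 min. IC50 from % inhibition relative to reference antagonist A438079, reported as potency bins.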

For a further experiment, the target named is T3, mouseP2X7 (Mus musculus, UniProt Q9Z1M0).
T3 construct: expressed in transfected cells; host or cells: HEK-293
T3 sequence (Q9Z1M0 1-595): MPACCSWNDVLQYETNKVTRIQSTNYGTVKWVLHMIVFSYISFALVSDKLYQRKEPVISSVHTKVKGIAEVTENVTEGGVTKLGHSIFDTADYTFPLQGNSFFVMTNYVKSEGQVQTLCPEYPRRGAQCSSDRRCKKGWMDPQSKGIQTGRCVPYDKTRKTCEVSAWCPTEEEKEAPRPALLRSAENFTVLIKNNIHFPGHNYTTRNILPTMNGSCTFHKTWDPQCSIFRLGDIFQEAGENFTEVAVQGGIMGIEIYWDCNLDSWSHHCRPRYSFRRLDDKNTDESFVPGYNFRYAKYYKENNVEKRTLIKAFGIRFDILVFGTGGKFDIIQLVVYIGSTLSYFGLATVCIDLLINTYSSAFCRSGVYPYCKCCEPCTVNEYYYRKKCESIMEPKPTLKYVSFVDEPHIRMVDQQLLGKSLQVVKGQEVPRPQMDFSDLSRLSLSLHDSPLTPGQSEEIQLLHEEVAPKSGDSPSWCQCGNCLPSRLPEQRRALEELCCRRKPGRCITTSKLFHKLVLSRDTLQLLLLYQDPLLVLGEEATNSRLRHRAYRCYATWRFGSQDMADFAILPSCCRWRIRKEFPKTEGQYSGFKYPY
Put plainly: P2X7 channel calcium-influx assay (Fluo-8, FLIPR TETRA), mouse P2X7. Conditions: HEK-293 cells stably transfected with P2X7; Bz-ATP at EC80; low divalent cation buffer; read-out: mouseP2X7 (activity range). Summed up: as §1

The target of the next experiment is T4, ratP2X7 (Rattus norvegicus, UniProt Q64663).
T4 construct: expressed in transfected cells; host or cells: HEK-293
T4 sequence (Q64663 1-595): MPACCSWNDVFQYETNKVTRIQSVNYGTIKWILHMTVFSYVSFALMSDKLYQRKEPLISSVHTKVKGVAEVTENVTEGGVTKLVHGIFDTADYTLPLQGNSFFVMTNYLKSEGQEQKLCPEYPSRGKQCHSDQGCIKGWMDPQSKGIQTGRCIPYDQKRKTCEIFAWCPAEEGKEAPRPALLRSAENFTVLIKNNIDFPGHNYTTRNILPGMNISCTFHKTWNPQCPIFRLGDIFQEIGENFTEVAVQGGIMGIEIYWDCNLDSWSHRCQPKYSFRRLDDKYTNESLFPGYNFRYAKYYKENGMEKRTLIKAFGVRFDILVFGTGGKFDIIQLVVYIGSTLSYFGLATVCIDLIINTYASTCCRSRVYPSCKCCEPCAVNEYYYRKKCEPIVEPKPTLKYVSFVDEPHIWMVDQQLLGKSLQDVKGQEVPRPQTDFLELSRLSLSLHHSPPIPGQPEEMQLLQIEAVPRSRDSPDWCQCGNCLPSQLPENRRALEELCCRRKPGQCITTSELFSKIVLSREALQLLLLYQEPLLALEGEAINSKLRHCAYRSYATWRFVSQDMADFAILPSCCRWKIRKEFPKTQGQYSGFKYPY
As to the kind of experiment: P2X7 channel calcium-influx assay (Fluo-8, FLIPR TETRA), rat P2X7. Conditions: HEK-293 cells stably transfected with P2X7; Bz-ATP at EC80; low divalent cation buffer; read-out: ratP2X7 (activity range). The essentials:
as §1

Results on 16 molecules are retold here after patent US20240368092A1, “2,4-Dihydro-3H-1,2,4-Triazol-3-One P2X7 Antagonists” (Breye Therapeutics ApS, priority 2021, published 2024).

Structures are written as SMILES.

Turning to `Cn1nc(Cc2ccccc2F)n(CCC2CCC(F)(F)CC2)c1=O` [Example 46, 4-(2-(4,4-difluorocyclohexyl)ethyl)-5-(2-fluorobenzyl)-2-methyl-2,4-dihydro-3H-1,2,4-triazol-3-one], the IC50 on human P2X7 channel is 1000 to 10000 nM; at humanP2X7, 1000 to 10000 nM; on mouseP2X7, 1000 to 10000 nM; on ratP2X7, 200 to 1000 nM.
As to `Cn1nc(Cc2ccccc2F)n(CC2CCC3(CC2)CC3)c1=O` [Example 47, 5-(2-fluorobenzyl)-2-methyl-4-(spiro[2.5]octan-6-ylmethyl)-2,4-dihydro-3H-1,2,4-triazol-3-one], the IC50 on human P2X7 channel was 100 to 1000 nM; at humanP2X7 it was 200 to 1000 nM; at mouseP2X7, 1000 to 10000 nM; at ratP2X7, below 200 nM.
On the same counts, the results for `Cn1nc(Cc2ccccc2C(F)(F)F)n(CC2CCC3(CC2)CC3)c1=O` [Example 48, 2-methyl-4-(spiro[2.5]octan-6-ylmethyl)-5-(2-(trifluoromethyl)benzyl)-2,4-dihydro-3H-1,2,4-triazol-3-one] are 100 to 1000 nM, 200 to 1000 nM, 1000 to 10000 nM and below 200 nM.
On the same counts, the results for `Cn1nc(Cc2ccccc2C(F)(F)F)n(CCC2CCC(C)(C)CC2)c1=O` [Example 49, 4-(2-(4,4-dimethylcyclohexyl)ethyl)-2-methyl-5-(2-(trifluoromethyl)benzyl)-2,4-dihydro-3H-1,2,4-triazol-3-one] are 1000 to 10000 nM, 1000 to 10000 nM, 10000 to 30000 nM and 10000 to 30000 nM.
The like results for `O=c1n(Cc2ccccc2)nc(Cc2c(F)cccc2Cl)n1CC1CCC(F)(F)CC1` [Example 50, 2-benzyl-5-(2-chloro-6-fluorobenzyl)-4-((4,4-difluorocyclohexyl)methyl)-2,4-dihydro-3H-1,2,4-triazol-3-one] were, in that order, below 10 nM, below 200 nM, below 200 nM and below 200 nM.
On to `Cn1nc(Cc2ccccc2F)n(CC2CCC(C(F)(F)F)CC2)c1=O` (stereo not shown) [Example 51, 5-(2-fluorobenzyl)-2-methyl-4-((4-(trifluoromethyl)cyclohexyl)methyl)-2,4-dihydro-3H-1,2,4-triazol-3-one], for which the IC50 on human P2X7 channel was 100 to 1000 nM; on humanP2X7, 200 to 1000 nM; on mouseP2X7 it was 1000 to 10000 nM; on ratP2X7, below 200 nM.
`Cn1nc(Cc2ccc(F)cc2Cl)n(CC2CCC(C(F)(F)F)CC2)c1=O` (stereo not shown) [Example 52, 5-(2-chloro-4-fluorobenzyl)-2-methyl-4-((4-(trifluoromethyl)cyclohexyl)methyl)-2,4-dihydro-3H-1,2,4-triazol-3-one]: the IC50 is 100 to 1000 nM at human P2X7 channel, 200 to 1000 nM at humanP2X7, 1000 to 10000 nM on mouseP2X7 and below 200 nM at ratP2X7.
On to `Cn1nc(Cc2c(F)cccc2Cl)n(CCO)c1=O` [Example 53, 5-(2-chloro-6-fluorobenzyl)-4-(2-hydroxyethyl)-2-methyl-2,4-dihydro-3H-1,2,4-triazol-3-one], for which the IC50 on human P2X7 channel was in the range of 1000 to 10000 nM; on humanP2X7, 10000 to 30000 nM; on mouseP2X7, 10000 to 30000 nM; on ratP2X7 it was 10000 to 30000 nM.
`Cn1nc(Cc2ccccc2Cl)n(CC2CCCCCC2)c1=O` [Example 55, 5-[(2-chlorophenyl)methyl]-4-(cycloheptylmethyl)-2-methyl-2,4-dihydro-3H-1,2,4-triazol-3-one]: the IC50 was 100 to 1000 nM at human P2X7 channel, 200 to 1000 nM on humanP2X7, 1000 to 10000 nM on mouseP2X7 and below 200 nM at ratP2X7.
On the same counts, the results for `Cn1nc(Cc2c(F)cccc2Cl)n(CC2(C)CCCCCC2)c1=O` [Example 56, 5-[(2-chloro-6-fluorophenyl)methyl]-2-methyl-4-[(1-methylcycloheptyl)methyl]-2,4-dihydro-3H-1,2,4-triazol-3-one] are 1000 to 10000 nM, 1000 to 10000 nM, 10000 to 30000 nM and 1000 to 10000 nM.
Take `O=c1n(CCC(F)(F)F)nc(Cc2c(F)cccc2Cl)n1CC1CCC(F)(F)CC1` [Example 57, 5-[(2-chloro-6-fluorophenyl)methyl]-4-[(4,4-difluorocyclohexyl)methyl]-2-(3,3,3-trifluoropropyl)-2,4-dihydro-3H-1,2,4-triazol-3-one]: the IC50 at human P2X7 channel is 10 to 100 nM; on humanP2X7, below 200 nM; on mouseP2X7, below 200 nM; on ratP2X7, below 200 nM.
For the molecule `O=c1n(CC(F)F)nc(Cc2c(F)cccc2Cl)n1CC1CCC(F)(F)CC1` [Example 58, 5-[(2-chloro-6-fluorophenyl)methyl]-4-[(4,4-difluorocyclohexyl)methyl]-2-(2,2-difluoroethyl)-2,4-dihydro-3H-1,2,4-triazol-3-one], the IC50 at human P2X7 channel was 10 to 100 nM; at humanP2X7, below 200 nM; at mouseP2X7, below 200 nM; on ratP2X7, below 200 nM.
Take `CCn1nc(CC2CCCCCC2)n(Cc2c(F)cccc2Cl)c1=O` [Example 60, 4-[(2-chloro-6-fluorophenyl)methyl]-5-(cycloheptylmethyl)-2-ethyl-2,4-dihydro-3H-1,2,4-triazol-3-one]: the IC50 on human P2X7 channel was 100 to 1000 nM; at humanP2X7, 200 to 1000 nM; on mouseP2X7, 1000 to 10000 nM; at ratP2X7 it was below 200 nM.
On the same counts, the results for `O=c1n(CC(F)(F)F)nc(CC2CCCCCC2)n1Cc1c(F)cccc1Cl` [Example 61, 4-[(2-chloro-6-fluorophenyl)methyl]-5-(cycloheptylmethyl)-2-(2,2,2-trifluoroethyl)-2,4-dihydro-3H-1,2,4-triazol-3-one] are 100 to 1000 nM, 200 to 1000 nM, 1000 to 10000 nM and below 200 nM.
The like results for `O=c1n(CC(F)(F)F)nc(Cc2ccccc2Cl)n1CC1CCC(F)(F)CC1` [Example 62, 5-[(2-chlorophenyl)methyl]-4-[(4,4-difluorocyclohexyl)methyl]-2-(2,2,2-trifluoroethyl)-2,4-dihydro-3H-1,2,4-triazol-3-one] were, in that order, below 10 nM, below 200 nM, below 200 nM and below 200 nM.
On the same counts, the results for `CCn1nc(Cc2ccccc2Cl)n(CC2CCC(F)(F)CC2)c1=O` [Example 63, 5-[(2-chlorophenyl)methyl]-4-[(4,4-difluorocyclohexyl)methyl]-2-ethyl-2,4-dihydro-3H-1,2,4-triazol-3-one] are 10 to 100 nM, below 200 nM, 200 to 1000 nM and below 200 nM.
